Biological target: T1, SIRT1 (Homo sapiens, UniProt Q96EB6)
T1 sequence (Q96EB6 1-747): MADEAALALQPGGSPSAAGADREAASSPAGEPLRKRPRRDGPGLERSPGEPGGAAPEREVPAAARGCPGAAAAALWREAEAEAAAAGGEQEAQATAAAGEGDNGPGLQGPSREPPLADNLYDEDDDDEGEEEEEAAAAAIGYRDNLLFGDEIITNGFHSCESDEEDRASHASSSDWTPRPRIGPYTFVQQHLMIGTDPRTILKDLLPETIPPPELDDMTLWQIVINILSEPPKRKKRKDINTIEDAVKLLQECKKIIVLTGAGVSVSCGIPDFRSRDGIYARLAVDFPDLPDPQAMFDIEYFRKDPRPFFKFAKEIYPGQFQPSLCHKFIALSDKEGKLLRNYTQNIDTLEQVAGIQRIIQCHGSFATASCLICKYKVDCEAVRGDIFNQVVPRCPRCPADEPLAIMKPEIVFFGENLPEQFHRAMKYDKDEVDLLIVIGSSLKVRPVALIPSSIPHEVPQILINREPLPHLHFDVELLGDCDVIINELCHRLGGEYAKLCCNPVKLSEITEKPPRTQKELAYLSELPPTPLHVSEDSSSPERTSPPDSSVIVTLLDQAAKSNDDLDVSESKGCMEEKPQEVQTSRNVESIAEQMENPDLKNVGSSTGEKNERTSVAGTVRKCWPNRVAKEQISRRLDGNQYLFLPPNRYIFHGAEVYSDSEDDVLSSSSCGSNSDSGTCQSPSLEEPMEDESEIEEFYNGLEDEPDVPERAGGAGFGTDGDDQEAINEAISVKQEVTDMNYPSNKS
Experiment: Mass spectrometry based SIRT1 deacetylation (activation) assay
Format: biochemical
Details: 0.5 μM peptide substrate, 120 μM βNAD+, 10 nM SIRT1, 25 min at 25° C.; for Emax: 25 min, read-out: % Fold Act. (percent maximum fold activation)

Compound | EC1.5 | Emax [%]
COCCNc1cc(C(=O)Nc2ccccc2-c2nnc(N3CCN4CCC[C@H]4C3)s2)nc(-c2ccccc2)n1 [Compound 117] | A (EC1.5≦1 uM) | 150 to 300
O=C1CN(c2cc(C(=O)Nc3ccccc3-c3nnc(N4CCN5CCC[C@H]5C4)s3)nc(-c3ccccc3)n2)CCN1 [Compound 118] | A (EC1.5≦1 uM) | 150 to 300
CN(C)CCNC(=O)c1ccccc1NC(=O)c1cc(NCCN(C)C)nc(-c2ccccc2)n1 [Compound 121, 6-(2-(dimethylamino)ethylamino)-N-(2-(2-(dimethylamino)ethylcarbamoyl)phenyl)-2-phenylpyrimidine-4-carboxamide] | B (EC1.5>1 and ≦10 uM) | 150 to 300
COCCNC(=O)c1ccccc1NC(=O)c1cc(NCCN(C)C)nc(-c2ccccc2)n1 [Compound 122, 6-(2-(dimethylamino)ethylamino)-N-(2-(2-methoxyethylcarbamoyl)phenyl)-2-phenylpyrimidine-4-carboxamide] | C (EC1.5>10 uM) | ≥ 300
CCCCNC(=O)c1ccccc1NC(=O)c1cc(NCCN(C)C)nc(-c2ccccc2)n1 [Compound 123, N-(2-(butylcarbamoyl)phenyl)-6-(2-(dimethylamino)ethylamino)-2-phenylpyrimidine-4-carboxamide] | C (EC1.5>10 uM) | < 150
CCN(CC)C(=O)c1ccccc1NC(=O)c1cc(NCCN(C)C)nc(-c2ccccc2)n1 [Compound 124, N-(2-(diethylcarbamoyl)phenyl)-6-(2-(dimethylamino)ethylamino)-2-phenylpyrimidine-4-carboxamide] | B (EC1.5>1 and ≦10 uM) | 150 to 300
CCCCC(=O)c1ccccc1NC(=O)c1cc(NCCN(C)C)nc(-c2ccccc2)n1 [Compound 127] | B (EC1.5>1 and ≦10 uM) | 150 to 300
CN(C)CCNc1cc(C(=O)Nc2ccccc2C(=O)Nc2ccccc2)nc(-c2ccccc2)n1 [Compound 128, 6-(2-(dimethylamino)ethylamino)-2-phenyl-N-(2-(phenylcarbamoyl)phenyl)pyrimidine-4-carboxamide] | B (EC1.5>1 and ≦10 uM) | 150 to 300
CN(C)CCNc1cc(C(=O)Nc2ccccc2C(=O)NCCC(=O)O)nc(-c2ccccc2)n1 [Compound 130, 3-(2-(6-(2-(dimethylamino)ethylamino)-2-phenylpyrimidine-4-carboxamido)benzamido)propanoic acid] | B (EC1.5>1 and ≦10 uM) | 150 to 300
CN(C)CCNc1cc(C(=O)Nc2ccccc2C(=O)c2ccccc2)nc(-c2ccccc2)n1 [Compound 131] | B (EC1.5>1 and ≦10 uM) | 150 to 300
CC(O)c1ccccc1NC(=O)c1cc(NCCN(C)C)nc(-c2ccccc2)n1 (centres unmarked) [Compound 133] | C (EC1.5>10 uM) | 150 to 300
CN(C)CCNc1cc(C(=O)Nc2ccccc2Br)nc(-c2ccccc2)n1 [Compound 136] | B (EC1.5>1 and ≦10 uM) | 150 to 300
COCCN(CCOC)c1cc(C(=O)Nc2ccccc2C(C)=O)nc(-c2ccccc2)n1 [Compound 141] | A (EC1.5≦1 uM) | ≥ 300
Cc1ccc(NC(=O)c2ccccc2NC(=O)c2cc(NCCN(C)C)nc(-c3ccccc3)n2)cc1 [Compound 144, 6-(2-(dimethylamino)ethylamino)-2-phenyl-N-(2-(p-tolylcarbamoyl)phenyl)pyrimidine-4-carboxamide] | A (EC1.5≦1 uM) | 150 to 300
CN(C)CCNc1cc(C(=O)Nc2ccccc2C(=O)Nc2cccc(Cl)c2)nc(-c2ccccc2)n1 [Compound 145, N-(2-(3-chlorophenylcarbamoyl)phenyl)-6-(2-(dimethylamino)ethylamino)-2-phenylpyrimidine-4-carboxamide] | A (EC1.5≦1 uM) | ≥ 300
Cc1cccc(NC(=O)c2ccccc2NC(=O)c2cc(NCCN(C)C)nc(-c3ccccc3)n2)c1 [Compound 146, 6-(2-(dimethylamino)ethylamino)-2-phenyl-N-(2-(m-tolylcarbamoyl)phenyl)pyrimidine-4-carboxamide] | B (EC1.5>1 and ≦10 uM) | ≥ 300
CN(C)CCNc1cc(C(=O)Nc2ccccc2C(=O)Nc2cccc(C(N)=O)c2)nc(-c2ccccc2)n1 [Compound 147, N-(2-(3-carbamoylphenylcarbamoyl)phenyl)-6-(2-(dimethylamino)ethylamino)-2-phenylpyrimidine-4-carboxamide] | A (EC1.5≦1 uM) | ≥ 300
CSCCNC(=O)c1ccccc1NC(=O)c1cc(NCCN(C)C)nc(-c2ccccc2)n1 [Compound 148, 6-(2-(dimethylamino)ethylamino)-N-(2-(2-(methylthio)ethylcarbamoyl)phenyl)-2-phenylpyrimidine-4-carboxamide] | B (EC1.5>1 and ≦10 uM) | ≥ 300
CN(C)CCNc1cc(C(=O)Nc2ccccc2C(=O)NCCS(C)(=O)=O)nc(-c2ccccc2)n1 [Compound 149, 6-(2-(dimethylamino)ethylamino)-N-(2-(2-(methylsulfonyl)ethylcarbamoyl)phenyl)-2-phenylpyrimidine-4-carboxamide] | B (EC1.5>1 and ≦10 uM) | 150 to 300
CN(C)CCNc1cc(C(=O)Nc2ccccc2C(=O)Nc2ccccc2C(N)=O)nc(-c2ccccc2)n1 [Compound 150, N-(2-(2-carbamoylphenylcarbamoyl)phenyl)-6-(2-(dimethylamino)ethylamino)-2-phenylpyrimidine-4-carboxamide] | A (EC1.5≦1 uM) | ≥ 300
CN(C)CCNc1cc(C(=O)Nc2ccccc2C(=O)N(C)c2ccccc2)nc(-c2ccccc2)n1 [Compound 151, 6-(2-(dimethylamino)ethylamino)-N-(2-(methyl(phenyl)carbamoyl)phenyl)-2-phenylpyrimidine-4-carboxamide] | C (EC1.5>10 uM) | 150 to 300
CN(C)CCNc1cc(C(=O)Nc2ccccc2C(=O)NCC[S+](C)[O-])nc(-c2ccccc2)n1 (centres unmarked) [Compound 152, 6-(2-(dimethylamino)ethylamino)-N-(2-(2-(methylsulfinyl)ethylcarbamoyl)phenyl)-2-phenylpyrimidine-4-carboxamide] | B (EC1.5>1 and ≦10 uM) | 150 to 300
CN(C)CCNc1cc(C(=O)Nc2ccccc2C(=O)Nc2ccc(Cl)c(Cl)c2)nc(-c2ccccc2)n1 [Compound 153, N-(2-(3,4-dichlorophenylcarbamoyl)phenyl)-6-(2-(dimethylamino)ethylamino)-2-phenylpyrimidine-4-carboxamide] | C (EC1.5>10 uM) | 150 to 300

Further lines, results first:

EC1.5 | Emax [%] | Compound
C (EC1.5>10 uM) | ≥ 300 | CN(C)CCNc1cc(C(=O)Nc2ccccc2C(=O)N2CCCC2)nc(-c2ccccc2)n1 [Compound 120, 6-(2-(dimethylamino)ethylamino)-2-phenyl-N-(2-(pyrrolidine-1-carbonyl)phenyl)pyrimidine-4-carboxamide]
B (EC1.5>1 and ≦10 uM) | ≥ 300 | CNC(=O)c1ccccc1NC(=O)c1cc(NCCN(C)C)nc(-c2ccccc2)n1 [Compound 125, 6-(2-(dimethylamino)ethylamino)-N-(2-(methylcarbamoyl)phenyl)-2-phenylpyrimidine-4-carboxamide]
B (EC1.5>1 and ≦10 uM) | 150 to 300 | CCC(=O)c1ccccc1NC(=O)c1cc(NCCN(C)C)nc(-c2ccccc2)n1 [Compound 126]
B (EC1.5>1 and ≦10 uM) | 150 to 300 | C/C(=N\O)c1ccccc1NC(=O)c1cc(NCCN(C)C)nc(-c2ccccc2)n1 [Compound 132]
A (EC1.5≦1 uM) | 150 to 300 | CC(=O)c1ccccc1NC(=O)c1cc(N2CCOCC2)nc(-c2ccccc2)n1 [Compound 134]
B (EC1.5>1 and ≦10 uM) | ≥ 300 | CCN(CC)CCNc1cc(C(=O)Nc2ccccc2C(C)=O)nc(-c2ccccc2)n1 [Compound 135]
A (EC1.5≦1 uM) | ≥ 300 | CC(=O)c1ccccc1NC(=O)c1cc(NC2CCN(C(C)C)CC2)nc(-c2ccccc2)n1 [Compound 137]
B (EC1.5>1 and ≦10 uM) | ≥ 300 | CC(=O)c1ccccc1NC(=O)c1cc(N2CCNCC2)nc(-c2ccccc2)n1 [Compound 138]
A (EC1.5≦1 uM) | ≥ 300 | CC(=O)c1ccccc1NC(=O)c1cc(NC2CCNCC2)nc(-c2ccccc2)n1 [Compound 140]
B (EC1.5>1 and ≦10 uM) | 150 to 300 | CC(C)C(=O)c1ccccc1NC(=O)c1cc(NCCN(C)C)nc(-c2ccccc2)n1 [Compound 142]
A (EC1.5≦1 uM) | ≥ 300 | CC(=O)c1ccccc1NC(=O)c1cc(NC2CCN(C)CC2)nc(-c2ccccc2)n1 [Compound 143]
